Data from patent publication US9981983B2, “Thienopyranones as kinase inhibitors” (SignalRx Pharmaceuticals, Inc., priority 2008, dated 2018).
Like-named read-outs stand apart in the source and are kept apart here. Starred links: 1 amine or outer side, 2 acyl side, 3 side chain; linkers in the order of their positions; H or OH if unused. Positions of bridges follow the written chain, without caps; N, C: chain ends. Non-standard residues stand in square brackets, D forms with d. Residues, ends and D or L forms follow the SMILES beside them. Chains are numbered I, II in the order given. Actinocin(9to1) = Cc1c2oc3c(C)ccc(C(=O)[*:1])c3nc-2c(C(=O)[*:2])c(N)c1=O; NMeV = CN[C@H](C(=O)O)C(C)C; Sar = CNCC(=O)O

Legend:
786-0 cells = assay: Apoptosis in 786-0 cells (Annexin V / PI flow cytometry); format: cell-based; set-up: unit not given here
Method: In order to evaluate the mechanism of action of these compounds, 786-0 cell cultures were treated with Cpd 9 or Cpd 28 at different concentrations overnight and then analyzed for apoptotic induction. The cells were stained using standard methods with Annexin V and/or Propedium iodine (PI) at room temperature for 15 minutes. Apoptotic cells at early (Annexin V positive) or late stage (both Annexin V and PI positive) were detected by Flow Cytometry.

[1] = tested on: pAKT serine 473 level in PC3 cells; assay: pAKT status in IGF-1 stimulated PC3 cells (Ser473 pAKT ELISA); format: cell-based; settings: Homo sapiens, PC-3
Method: (§1) PC3 cells were obtained from the American Type Culture Collection (ATCC, Manassas, Va., Cat.# CRL-1435). Two million cells from the prostate cancer line PC3 were placed into 6 cm culture dishes and allowed to grow in complete RPMI 1640 media (Invitrogen, Carlsbad, Calif., Cat.#22400-105) with 10% fetal bovine serum (Invitrogen, Carlsbad, Calif., Cat.#10438-026). After this time period the cells were serum starved for 5 hours followed by application of the test compound. Test compound was added as a DMSO (dimethyl sulfoxide) solution such that the final DMSO concentration in the cell media was less than or equal to 0.2% by volume After 30 minutes of exposure the growth factor stimulant, human IGF-1 (PeproTech, Inc., Rocky Hill, N.J., Cat.#100-11), was added to a final concentration of 0.1 μg/ml in each well. After 30 minutes of IGF-1 exposure, cells were removed from the media and cell lysates were prepared using RIPA Lysis buffer (Upstate, Lake Placid, N.Y., Cat.#20-188), keeping on ice. The pAKT serine 473 level was measured in duplicate samples of the cell lysates using commercially available assays such as the Pathscan® Sandwich ELISA kit for Ser473 pAKT (Cell Signaling, Danvers, Mass., Cat.#7160). A SpectraMax Plus spectrophotometric plate reader (Molecular Devices, Sunnydale, Calif.) was used to measure the optical density signal for pAKT at 450 nm (OD450 nm). The pAKT OD450 nm readings were normalized by total protein amount in the cell lysates determined by standard methods.
(§2) Concentrations of test compounds required to inhibit IGF stimulated pAKT levels to 50% of maximum levels in PC3 cells (termed DM50 for decreased maximum 50%) were calculated by inputting the dose responses in the software package GraphPad Prism4 (GraphPad Software, Inc., San Diego, Calif.).
By these methods a number of compounds of the invention were evaluated and the concentration needed to reduce the detectable pAKT to 50% of the maximal uninhibited signal was calculated. These values (in μMolar units) are listed in Table 8 under the column heading PC3 pAKT IC50 (μMolar).

PC3 cells = assay: PC3 prostate cancer cell proliferation (WST); format: cell-based; settings: Homo sapiens, PC-3; 72 hours; read-out: IC50 PC3 Proliferation
Method: (§3) PC3 cells were obtained from the American Type Culture Collection (ATCC, Manassas, Va., Cat.# CRL-1435) Two thousand cells from the prostate cancer line PC3 were placed in 50 μL of complete RPMI 1640 media (Invitrogen, Carlsbad, Calif., Cat.#22400-105) with 10% fetal bovine serum (Invitrogen, Carlsbad, Calif., Cat.#10438-026) into each well of 96 well cell culture plates in a hexaplicate sampling pattern. A 50 μL aliquot of test compound (prepared from stock test compounds in DMSO diluted into media) was added to the appropriate well such that the final concentrations of test compound were 200, 40, 8, 1.6, 0.32, 0.064, 0.0128, 0.00256, and 0 μM and the final DMSO concentration was less than or equal to 0.2%.
(§4) The plates were incubated for 72 hours 37° C. in an atmosphere of 5% CO2. At the end of this time a 10 μL aliquot of WST solution (Roche Applied Science, Mannheim, Germany) was added into each of the wells. Cells were exposed to the WST solution for 4 hours. A SpectraMax Plus spectrophotometric plate reader (Molecular Devices, Sunnydale, Calif.) was then used to measure the optical density at 450 nm (OD450 nm). Sigmoidal curves were drawn for the dose responses and IC50 values were calculated using the software package GraphPad Prism4 (GraphPad Software, Inc., San Diego, Calif.).

MCF7 breast cancer cells = assay: Mammosphere cancer stem cell inhibition assay; format: cell-based
Method: A mammosphere cancer stem cell inhibition assay was set up using literature methods (T. M. Phillips et al. J. Natl. Cancer I. 2006, 98, 1777-1785, “Mammalian target of rapamycin contributes to the acquired apoptotic resistance of human mesothelioma multicellular spheroids”) using a subset of MCF7 breast cancer cells that posses the ability to evade anchorage independent apoptosis. Commercially available MCF7 breast cancer cells were cultured in MEM supplemented with 0.01 mg/mL of bovine insulin and 10% FBS at 37° C. in humidified atmosphere (5% CO2). Floating cells in the 2-day cultures were collected, washed, and resuspended in DMEM-F12 (50:50) supplemented with 0.4% BSA, 5 μg/mL bovine insulin, 20 ng/mL bFGF, and 10 ng/mL EGF. Cells were then passed through a […] sieve to remove any cell clusters and adjusted to a density of 10,000 cells/mL. Approximately 500 cells were plated in quadruplicate in a sterile poly-HEMA-treated 96-well plate. Cells were then treated with either control or test solutions consisting of the kinase inhibitor Lapatinib (1 μM), Cpd 28 (1 or 10 μM), Cpd 55 (1 or 10 μM), The numbers of mammospheres (clusters of cells numbering more than 4 or 5 per cluster) were then counted after 5-7 days.

breast cancer stem cells = settings: women with breast tumors with high HER2; decreased from 11%; cited from earlier work
[2] = tested on: AKT Ser473 phosphorylation in PC3 (prostate cancer) Cell Line; assay: pAKT Ser473 ELISA in PC3 cells stimulated by Bv8, VEGF, IGF; format: cell-based; settings: Homo sapiens, PC-3, PC3, read-out: Concentration Required to Inhibit pAKT to Half-maximal Levels
Method: (§5) This was followed by the addition of IGF, VEGF and Bv8 to 0.1 μg/mL, 0.1 μg/mL and 2.5 μg/mL respectively for another 30 minutes before harvesting the cells and making cell lysates with RIPA buffer keeping on ice, pAKT levels were measured in duplicate samples with Cell Signaling's Ser473 pAKT ELISA kit. Optical density plate readings of pAKT levels were made at 450 nm (OD450 nm) and were normalized by total protein amount of the cell lysates. The dose of compound at which pAKT levels are reduced to 50% of the non-treatment level was calculated using GraphPad Prism4 software and is listed in Tables 4 and 5 below.

[3] = tested on: AKT Ser473 phosphorylation in renal cell carcinoma (786-O) Cell Line; assay: pAKT Ser473 ELISA in 786-O cells stimulated by Bv8, VEGF, IGF; format: cell-based; settings: Homo sapiens, 786-0, 786-O, read-out: Concentration Required to Inhibit pAKT to Half-maximal Levels
Method: as §5

mTOR = mTOR (Homo sapiens, UniProt P42345); assay: mTOR inhibition; format: biochemical
pAKT in H1299 cells = assay: pAKT status DM50, H1299; format: cell-based; settings: Homo sapiens, NCI-H1299; H1299, non-small cell lung cancer
Method: as §1, §2
(§6) Several other cancer cell lines were obtained from ATCC and grown according to the supplier's recommendations and treated with test compounds. DM50 values listed in Table 6 below were obtained by the methods described in Example A: […]

pAKT in BT-474 cells = assay: pAKT status DM50, BT-474; format: cell-based; settings: Homo sapiens; BT-474, breast cancer
Method: as §1, §2, §6

pAKT in 786-O cells = assay: pAKT status DM50, 786-O; format: cell-based; settings: Homo sapiens, 786-0, renal cell carcinoma
Method: as §1, §2, §6

H1299 cells = assay: Cellular proliferation (Example B method), H1299; format: cell-based; settings: Homo sapiens, NCI-H1299; H1299, non-small cell lung cancer
Method: as §3, §4
(§7) Several other cancer cell lines were obtained from ATCC and grown according to their recommendations and treated with test compounds to obtain the concentration of test compound that inhibited the cellular proliferation by 50% of no-treatment controls. These IC50 values (μM) are listed in Table 7 below obtained by the methods described in Example B: […]

BT-474 cells = assay: Cellular proliferation (Example B method), BT-474; format: cell-based; settings: Homo sapiens; BT-474, breast cancer
Method: as §3, §4, §7

786-O cells = assay: Cellular proliferation (Example B method), 786-O; format: cell-based; settings: Homo sapiens, 786-0, renal cell carcinoma
Method: as §3, §4, §7

[4] = tested on: 786-0 renal cell carcinoma xenograft; assay: 786-0 renal cell carcinoma xenograft mouse model; format: in vivo, nude mice; settings: 25 mg/kg, ip, 3×/wk
Method: To determine if Cpd 9 has anti-tumor effects, an in vivo study was conducted in a 786-0 renal cell carcinoma xenograft model, 786-0 cells (2×10^6) were inoculated subcutaneously into nude mice in the flank area and tumor growth was monitored with calipers via external measurements. Tumor volume was calculated using the formula volume=(length×width^2)/2. When the average tumor volume reached 400 mm^3, mice were randomly divided into 2 groups and treated with either DMSO (control) or Cpd 9 (25 mg/kg, ip) three times weekly (M, W, F) for two weeks.
To determine if Cpd 28 has anti-tumor effects, an in vivo study was conducted in a 786-0 renal cell carcinoma xenograft model, 786-0 cells (2×10^6) were inoculated subcutaneously into nude mice in the flank area and tumor growth was monitored with calipers via external measurements. Tumor volume was calculated using the formula volume=(length×width^2)/2. Treatment was started when tumors reached an average volume of 300 mm^3. […] DMSO was used as control since this was the vehicle the compounds were dissolved in. Tumor size was monitored twice weekly and body weight was monitored once weekly. Means and standard deviations were calculated and the Student t test method was used for statistical comparisons.

[5] = IGF-1 stimulated PC3 cells, read-out: PC3 pAKT IC50
[6] = 1 μM, separate experiment, control 32±6

## Cc1c2oc3c(C)ccc(C(=O)N[C@@H]4C(=O)N[C@H](C(C)C)C(=O)N5CCC[C@H]5C(=O)N(C)CC(=O)N(C)[C@@H](C(C)C)C(=O)O[C@@H]4C)c3nc-2c(C(=O)N[C@@H]2C(=O)N[C@H](C(C)C)C(=O)N3CCC[C@H]3C(=O)N(C)CC(=O)N(C)[C@@H](C(C)C)C(=O)O[C@@H]2C)c(N)c1=O [Actinomycin D, reference compound] (I: T[dV]P[Sar][NMeV] / II: T[dV]P[Sar][NMeV]; ester I:1-I:C, II:1-II:C; linker I:N-II:N via Actinocin(9to1))
786-0 cells; 200 ng/mL
  Early stage apoptotic cells: 16.93
  Late stage apoptotic cells: 12.63
  Total Apoptotic Cells: 29.56

## COc1ccc(C#Cc2csc3c(=O)cc(N4CCOCC4)oc23)cc1 [Compound 38]
[1]; [5]
  IC50: 363 nM
PC3 cells
  IC50: 8420 nM

## CS(=O)(=O)CCNCc1ccc(-c2ccc3ncnc(Nc4ccc(OCc5cccc(F)c5)c(Cl)c4)c3c2)o1 [Lapatinib, reference compound]
MCF7 breast cancer cells; 1 μM, first experiment
  inhibition of mammosphere production versus control: 33%
MCF7 breast cancer cells; 1 μM, first experiment, control 38±4
  number of mammospheres: 26±2 mammospheres
MCF7 breast cancer cells; 1 μM, separate experiment
  inhibition of mammosphere production versus control: 55%
MCF7 breast cancer cells; [6]
  number of mammospheres: 17±4 mammospheres
Breast cancer stem cells
  breast cancer stem cells in biopsies: 5 % of cells

## CS(=O)(=O)c1ccc(-c2csc3c(=O)cc(N4CCOCC4)oc23)cc1 [Compound 13]
[1]; [5]
  IC50: 5300 nM
PC3 cells
  IC50: 15300 nM

## CCOC(=O)c1ccc(-c2csc3c(=O)cc(N4CCOCC4)oc23)cc1 [Compound 25]
PC3 cells
  IC50: 1230 to 3140 nM
[2]; stimulant Bv8
  IC50: 941 nM
[2]; stimulant IGF
  IC50: 2120 nM
[2]; stimulant PBS
  IC50: 564 nM
[2]; stimulant VEGF
  IC50: 332 nM
[3]; stimulant Bv8
  IC50: 699 nM
[3]; stimulant IGF
  IC50: 4390 nM
[3]; stimulant PBS
  IC50: 918 nM
[3]; stimulant VEGF
  IC50: 498 nM
MCF7 breast cancer cells; 1 μM, separate experiment
  inhibition of mammosphere production versus control: approximately 69%
MCF7 breast cancer cells; [6]
  number of mammospheres: 12±3 mammospheres
MCF7 breast cancer cells; 10 μM, separate experiment
  inhibition of mammosphere production versus control: approximately 82%
MCF7 breast cancer cells; 10 μM, separate experiment, control 32±6
  number of mammospheres: 7±2 mammospheres

## O=c1cc(N2CCOCC2)oc2c(-c3ccccc3)csc12 [Compound 6, 5-morpholino-3-phenyl-7H-thieno[3,2-b]pyran-7-one]
mTOR
  IC50: 610 nM
[1]; [5]
  IC50: 550 nM
[1]; PC3 cells, read-out: IC50 pAKT (Pathway Inhibition)
  IC50: 550 nM
pAKT in H1299 cells
  IC50: 3190 nM
pAKT in BT-474 cells
  IC50: 1240 nM
pAKT in 786-O cells
  IC50: 4170 nM
H1299 cells
  IC50: 5020 nM
BT-474 cells
  IC50: 11600 nM
786-O cells
  IC50: 9530 nM

## Nc1cccc(-c2csc3c(=O)cc(N4CCOCC4)oc23)c1 [Compound 11]
[1]; [5]
  IC50: 6320 nM
PC3 cells
  IC50: 6290 nM

## CN(C)c1ccc(-c2csc3c(=O)cc(N4CCOCC4)oc23)cc1 [Compound 9]
PC3 cells
  IC50: 2010 nM
[4]; about two weeks, p<0.05
  tumor growth reduction compared to control: 93%
[4]; two weeks
  body weight change or other abnormalities: No significant body weight change or other abnormalities were observed
786-0 cells; 5 μM, overnight
  Early stage apoptotic cells: 7.76
  Late stage apoptotic cells: 10.5
  Total Apoptotic Cells: 18.26
786-0 cells; 10 μM, overnight
  Early stage apoptotic cells: 8.31
  Late stage apoptotic cells: 11.62
  Total Apoptotic Cells: 19.93
pAKT in H1299 cells
  IC50: 3070 nM
pAKT in BT-474 cells
  IC50: 906 nM
pAKT in 786-O cells
  IC50: 2660 nM
H1299 cells
  IC50: 3040 nM
BT-474 cells
  IC50: 5910 nM
786-O cells
  IC50: 6240 nM
